One assay concerns RCC4. Briefly: XTT IC50 / viability assay, RCC4 cells. Type of assay: cell-based, human. To be noted: Homo sapiens, RCC4, 96 h; XTT assay, four days. The method, boiled down:
(§1)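 RCC4 parental and VHL-reintroduced RCC4/VHL cells (DMEM, 10% FCS) treated with serially diluted drug for four days. Viability by XTT (0.3 mg/mL) with N-methyl dibenzopyrazine methyl sulfate, 1–2 h at 37 °C, absorbance 450 nm; IC50 by linear interpolation.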
(In general: Formazan colour is commonly taken as a measure of viable cells.)

The subject of the next assay is RCC4/VHL. Briefly: XTT IC50 assay, selectivity RCC4 versus RCC4 with VHL-reintroduced. To be noted: selectivity ratio of XTT IC50 values, RCC4 vs RCC4/VHL. The format is cell-based, human. The method, boiled down:
as §1

Each structure is given as a SMILES string.

The term IC50 denotes the concentration needed to halve the response being measured. A high value points to weaker potency in that assay.

Consider `CCN(Cc1ccc(C(=O)Nc2cccnc2)cc1)S(=O)(=O)c1ccc(C(C)(C)C)cc1` [Example 139, 4-{[[(4-tert-Butylphenyl)sulfonyl](ethyl)amino]methyl}-N-(3-pyridinyl)benzamide], for which the IC50 in the assay on RCC4 was greater than 20 µM. Further, the “Ratio (RCC4:RCC/VHL)” value in the assay with RCC4/VHL was “a (“a” reflects a ratio of RCC4/RCC-VHL+ ranging from 1 to 10)”.

Consider `CN(C)Cc1ccc(S(=O)(=O)NCc2ccc(C(=O)Nc3cccnc3)cc2)cc1` [Example 77, 4-[({4-[(Dimethylamino)methyl]phenyl}sulfonyl)amino]methyl-N-(3-pyridinyl)benzamide], for which the IC50 in the assay with RCC4 is less than 1 µM. In the assay with RCC4/VHL, the “Ratio (RCC4:RCC/VHL)” value was “b (“b” reflects from 10 to 100)”.

On to `Nc1ccc(S(=O)(=O)NCc2ccc(C(=O)Nc3cccnc3)cc2)cc1` [Example 32, 4-((4-Aminophenylsulfonamido)methyl)-N-(pyridin-3-yl)benzamide], for which the IC50 with RCC4 fell in the range of 1 to 20 µM. The “Ratio (RCC4:RCC/VHL)” value in the assay on RCC4/VHL is reported as “b (“b” reflects from 10 to 100)”.

In the assay on RCC4, `O=C(Nc1cccnc1)c1ccc(CNS(=O)(=O)c2cccc([N+](=O)[O-])c2)cc1` [Example 25, 4-((3-Nitrophenylsulfonamido)methyl)-N-(pyridin-3-yl)benzamide] gave an IC50 of 1 to 20 µM. The “Ratio (RCC4:RCC/VHL)” value in the assay with RCC4/VHL is listed as “b (“b” reflects from 10 to 100)”.

On to `Cc1ccc(S(=O)(=O)NCc2ccc(C(=O)Nc3cccnc3)cc2)cc1Cl` [Example 69, 4-((3-Chloro-4-methylphenylsulfonamido)methyl)-N-(pyridin-3-yl)benzamide], for which the IC50 in the assay with RCC4 is less than 1 µM. For the same compound, in the assay on RCC4/VHL, the “Ratio (RCC4:RCC/VHL)” value is given as “b (“b” reflects from 10 to 100)”.

In turn, `O=C(Nc1cccnc1)c1ccc(CNS(=O)(=O)c2cccc(C(F)(F)F)c2)cc1` [Example 23, N-(Pyridin-3-yl)-4-((3-(trifluoromethyl)phenylsulfonamido)methyl)benzamide] displayed an IC50 in the assay on RCC4 of less than 1 µM. In the assay with RCC4/VHL, the “Ratio (RCC4:RCC/VHL)” value was “b (“b” reflects from 10 to 100)”.

In turn, `O=C(Nc1cccnc1)c1ccc(CNS(=O)(=O)c2ccc(-c3cnco3)cc2)cc1` [Example 60, 4-[({[4-(1,3-Oxazol-5-yl)phenyl]sulfonyl}amino)methyl]-N-(3-pyridinyl)benzamide] gave an IC50 in the assay with RCC4 of less than 1 µM. For the same compound, the “Ratio (RCC4:RCC/VHL)” value in the assay on RCC4/VHL is “b (“b” reflects from 10 to 100)”.

Regarding `CC(=O)c1ccc(S(=O)(=O)NCc2ccc(C(=O)Nc3cccnc3)cc2)cc1` [Example 48, 4-((4-Acetylphenylsulfonamido)methyl)-N-(pyridin-3-yl)benzamide], the IC50 in the assay on RCC4 was less than 1 µM. Moreover, in the assay with RCC4/VHL, the “Ratio (RCC4:RCC/VHL)” value is given as “b (“b” reflects from 10 to 100)”.

Regarding `COC1CCN(c2ccc(S(=O)(=O)NCc3ccc(C(=O)Nc4cccnc4)cc3)cc2)CC1` [Example 129, 4-[({[4-(4-Methoxy-1-piperidinyl)phenyl]sulfonyl}amino)methyl]-N-(3-pyridinyl)benzamide], the IC50 with RCC4 was less than 1 µM. For the same compound, in the assay with RCC4/VHL, the “Ratio (RCC4:RCC/VHL)” value is listed as “c (“c” reflects a ratio of >100)”.

On to `Cc1ccc(-c2ccc(S(=O)(=O)NCc3ccc(C(=O)Nc4cccnc4)cc3)cc2)cc1` [Example 53, 4-({[(4′-Methyl[1,1′-biphenyl]-4-yl)sulfonyl]amino}methyl)-N-(3-pyridinyl)benzamide], for which the IC50 with RCC4 lay within 1 to 20 µM. Also, the “Ratio (RCC4:RCC/VHL)” value in the assay with RCC4/VHL was “a (“a” reflects a ratio of RCC4/RCC-VHL+ ranging from 1 to 10)”.

With `O=C(Nc1cccnc1)c1ccc(CNS(=O)(=O)c2ccc(Br)cc2)cc1` [Example 45, 4-((4-Bromophenylsulfonamido)methyl)-N-(pyridin-3-yl)benzamide], the IC50 with RCC4 was 1 to 20 µM. In addition, the “Ratio (RCC4:RCC/VHL)” value with RCC4/VHL is recorded as “b (“b” reflects from 10 to 100)”.

In the assay with RCC4, `O=C(Nc1cccnc1)c1ccc(CNS(=O)(=O)c2ccc3ccccc3c2)cc1` [Example 72, 4-((Naphthalene-2-sulfonamido)methyl)-N-(pyridin-3-yl)benzamide] showed an IC50 of 1 to 20 µM. Moreover, the “Ratio (RCC4:RCC/VHL)” value in the assay with RCC4/VHL is reported as “b (“b” reflects from 10 to 100)”.

Source of the values: patent publication US20120225862A1, “HETEROARYL BENZAMIDES, COMPOSITIONS AND METHODS OF USE” (AUCKLAND UNIVSERVICES LIMITED, priority 2009, published 2012).
